Laboratory results taken from patent US12065428B2, “Anti-viral compounds” (Aligos Therapeutics, Inc., priority 2021, dated 2024).
Like-named read-outs stand apart in the source and are kept apart here.

How the values were obtained:
HRV3C = target: T1, HRV3C (Human rhinovirus 14, UniProt P03303); test: biochemical; conditions: read-out: HRV IC50
T1 construct: SARS-Cov-2 3CLpro and HRV3C Duplex Assay

[1] = test system: human beta-coronavirus OC43; test: OC43 coronavirus assay in HeLa cells (cytopathic effect, cell-titer-glo); format: cell-based
[2] = Cytotoxicity plates without OC43 virus in HeLa cells; format: cell-based; conditions: human, HeLa cells (uninfected)
Procedure: The human beta-coronavirus OC43 was purchased from ATCC (Manassas, VA) and propagated using HCT-8 human colorectal epithelial cells (ATCC). HeLa human cervical epithelial cells (ATCC) were used as susceptible host cell lines and were cultured using EMEM media, supplemented with 10% fetal bovine serum (FBS), 1% (v/v) penicillin/streptomycin (P/S), 1% (v/v) HEPES and 1% (v/v) cellgro Glutagro™ supplement (all Corning, Manassas, VA) at 37° C. For the OC43 antiviral assay, 1.5×10^4 HeLa cells per well were plated in 100 μL complete media in white 96-well plates with clear bottoms at 37° C. for up to 24 h to facilitate attachment and allow cells to recover from seeding stresses. Next day, the cell culture medium was removed. Serially diluted compounds in 100 μL assay media (EMEM, 2% FBS, 1% P/S, 1% cellgro Glutagro™ supplement, 1% HEPES) were added to the cells and incubated for 4H at 37° C. in a humidified 5% CO2 incubator. 100 μL of OC43 virus stock was diluted to a concentration known to produce optimal cytopathic effect, inducing 80-90% reduction in cell viability. 96-well plates were incubated for 6 (HeLa) days at 33° C.; each plate contains uninfected control wells as well as virus-infected wells that were not treated with compound. Cytotoxicity plates without the addition of OC43 virus were carried out in parallel. At the end of the incubation period, 100 μL cell culture supernatant was replaced with 100 μL cell-titer-glo reagent (Promega, Madison, WI) and incubated for at least 10 min at rt prior to measuring luminescence. Luminescence was measured on a Perkin Elmer (Waltham, MA) Envision plate reader. Antiviral % inhibition was calculated as follows: [(Compound treated cells infected sample)−(no compound infected control)]/[(Uninfected control)−(no compound infected control)]*100; Using GraphPad (San Diego, CA) prism software version 8.3.1, the antiviral dose-response plot was generated as a sigmoidal fit, log(inhibitor) vs response-variable slope (four parameters) model and the EC50 was calculated which is the predicted compound concentration corresponding to a 50% inhibition of the viral cytopathic effect.

SARS-Cov-2 3CLpro = target: T2, SARS-Cov-2 3CLpro (Severe acute respiratory syndrome coronavirus 2, UniProt P0DTD1); test: SARS-Cov-2 3CLpro and HRV3C duplex assay (SAMDI-MS): 3CLpro; format: biochemical; conditions: 3CLpro, duplex assay, 30 mins preincubation; class symbols; read-out: SARS-Cov-2 IC50
T2 construct: SARS-Cov-2 3CLpro and HRV3C Duplex Assay

[3] = test system: SARS-CoV-2-GHB-03021/2020; test: microbe, parasite or virus in culture; format: cell-based; conditions: Severe acute respiratory syndrome coronavirus 2, Vero C1008, 96 h; read-out: VeroE6 + CP (EC50)
human cathepsin L = target: T3, human cathepsin L (Homo sapiens, UniProt P07711); test: Cathepsin L assay (Z-FR-AMC fluorescence); format: biochemical; conditions: 10 pM human cathepsin L, 30 mins preincubation; class symbols
T3 construct: purchased R&D Systems
Procedure: For the cathepsin L assay, 10 pM of human cathepsin L (R&D Systems; Minneapolis, MN) was preincubated for 30 mins with test compounds. Reactions were initiated by the addition of a peptide substrate Z-FR-AMC (final concentration 2 μM, Anaspec; Fremont, CA). Fluorescence was measured at 2-minute intervals for 30 mins using a 355/460 excitation/emission filter module on an Envision plate reader (Perkin Elmer; Waltham, MA). The IC50 values were calculated for each assay by fitting the curves using a four-parameter equation in GraphPad Prism.

[4] = HRV3C, duplex assay, 30 mins preincubation, class symbols
[5] = Betacoronavirus 1, 144 h, OC43 in HeLa cells, 6 days at 33° C., class symbols, read-out: EC50

T1 sequence (P03303 1538-1719): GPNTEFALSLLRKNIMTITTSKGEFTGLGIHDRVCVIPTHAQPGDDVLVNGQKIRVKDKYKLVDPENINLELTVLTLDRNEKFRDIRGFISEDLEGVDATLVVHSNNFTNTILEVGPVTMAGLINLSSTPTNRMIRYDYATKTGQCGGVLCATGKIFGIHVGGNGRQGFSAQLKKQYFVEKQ
T3 sequence (P07711 114-333): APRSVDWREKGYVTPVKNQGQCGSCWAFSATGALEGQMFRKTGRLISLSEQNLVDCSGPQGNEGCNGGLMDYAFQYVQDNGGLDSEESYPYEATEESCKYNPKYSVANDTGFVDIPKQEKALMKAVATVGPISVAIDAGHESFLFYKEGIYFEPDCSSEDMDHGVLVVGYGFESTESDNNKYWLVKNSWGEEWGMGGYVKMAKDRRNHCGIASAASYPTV

| SMILES | IC50 (HRV3C; [4]) | EC50 [1, 5] | CC50 at 6 days ([2]; numeric bound, unit inferred) | IC50 (SARS-Cov-2 3CLpro) | EC50 [3] | IC50 (human cathepsin L) | IC50 (HRV3C) | CC50 at 6 days ([2]; class symbols) | EC50 ([1]; Betacoronavirus 1, OC43, HeLa) |
| --- | --- | --- | --- | --- | --- | --- | --- | --- | --- |
| Cc1sc(C(=O)N2CCC3(CC3)C[C@H]2C(=O)N[C@@H](C[C@@H]2CCNC2=O)C(=O)C(=O)NC2CC2)nc1-c1ccccc1 [Compound 38] | 2000 to 20000 nM | 100 to 1000 nM | > 100000 nM | 200 to 2000 nM | 1000 to 10000 nM | ≥ 10000 nM | – | – | – |
| CC(C)(C)c1csc(C(=O)N2CCC3(CC3)C[C@H]2C(=O)N[C@@H](C[C@@H]2CCNC2=O)C(=O)C(=O)NC2CC2)n1 [Compound 39] | 2000 to 20000 nM | 100 to 1000 nM | > 100000 nM | 200 to 2000 nM | 1000 to 10000 nM | 1000 to 10000 nM | – | – | – |
| O=C(NC1CC1)C(=O)[C@H](C[C@@H]1CCNC1=O)NC(=O)[C@@H]1CC2(CCN1C(=O)c1csc(-c3ccccc3)n1)CC2 [Compound 40] | 200 to 2000 nM | 100 to 1000 nM | > 100000 nM | 200 to 2000 nM | 1000 to 10000 nM | ≥ 10000 nM | – | – | – |
| O=C(NC1CC1)C(=O)[C@H](C[C@@H]1CCNC1=O)NC(=O)[C@@H]1CC2(CCN1C(=O)c1cccc(-c3ccccc3)n1)CC2 [Compound 41] | 200 to 2000 nM | 100 to 1000 nM | > 100000 nM | 200 to 2000 nM | 1000 to 10000 nM | ≥ 10000 nM | – | – | – |
| COc1ccccc1-c1csc(C(=O)N2CCC3(CC3)C[C@H]2C(=O)N[C@@H](C[C@@H]2CCNC2=O)C(=O)C(=O)NC2CC2)n1 [Compound 42] | – | 100 to 1000 nM | > 100000 nM | 200 to 2000 nM | 1000 to 10000 nM | ≥ 10000 nM | > 10000 nM | – | – |
| O=C(NC1CC1)C(=O)[C@H](C[C@@H]1CCNC1=O)NC(=O)[C@@H]1CC2(CCN1C(=O)c1nc(-c3ccccc3Cl)cs1)CC2 [Compound 43] | – | 100 to 1000 nM | > 100000 nM | 200 to 2000 nM | 1000 to 10000 nM | ≥ 10000 nM | > 10000 nM | – | – |
| O=C(NC1CC1)C(=O)[C@H](C[C@@H]1CCNC1=O)NC(=O)[C@@H]1CC2(CCN1C(=O)c1nc(-c3ccc(Cl)cc3)cs1)CC2 [Compound 44] | – | 100 to 1000 nM | – | 200 to 2000 nM | 1000 to 10000 nM | ≥ 10000 nM | > 10000 nM | 10000 to 100000 nM | – |
| O=C(NC1CC1)C(=O)[C@H](C[C@@H]1CCNC1=O)NC(=O)[C@@H]1CC2(CCN1C(=O)c1csc(-c3cccc(Cl)c3)n1)CC2 [Compound 45] | 2000 to 20000 nM | 100 to 1000 nM | – | 20 to 200 nM | < 1000 nM | ≥ 10000 nM | – | 10000 to 100000 nM | – |
| O=C(NC1CC1)C(=O)[C@H](C[C@@H]1CCNC1=O)NC(=O)[C@@H]1CC2(CCN1C(=O)c1nc(C3CCCCC3)cs1)CC2 [Compound 46] | – | 100 to 1000 nM | > 100000 nM | 200 to 2000 nM | 1000 to 10000 nM | 1000 to 10000 nM | > 10000 nM | – | – |
| O=C(NC1CC1)C(=O)[C@H](C[C@@H]1CCNC1=O)NC(=O)[C@@H]1CC2(CCN1C(=O)[C@@H]1C[C@@H]1c1ccccc1)CC2 [Compound 47] | 200 to 2000 nM | – | > 100000 nM | 2000 to 20000 nM | > 50000 nM | ≥ 10000 nM | – | – | > 10000 nM |
| O=C(NC1CC1)C(=O)[C@H](C[C@@H]1CCNC1=O)NC(=O)[C@@H]1CC2(CCN1C(=O)[C@@H]1C[C@H]1c1ccccc1)CC2 [Compound 48] | 200 to 2000 nM | 100 to 1000 nM | > 100000 nM | 20 to 200 nM | 1000 to 10000 nM | 1000 to 10000 nM | – | – | – |
| O=C(NC1CC1)C(=O)C(C[C@@H]1CCNC1=O)NC(=O)[C@@H]1[C@@H]2C[C@@H](CC23CC3)N1C(=O)c1ncc(-c2ccccc2)s1 (stereo partly drawn) [Compound 49, N-cyclopropyl-2-oxo-4-[(3S)-2-oxopyrrolidin-3-yl]-3-[(1R,4S,6S)-5-(5-phenyl-1,3-thiazole-2-carbonyl)-5-azaspiro[bicyclo[2.2.1]heptane-2,1′-cyclopropan]-6-ylformamido]butanamide] | 2000 to 20000 nM | 100 to 1000 nM | > 100000 nM | 20 to 200 nM | < 1000 nM | ≥ 10000 nM | – | – | – |
| CC(C)(C)[C@H](NC(=O)C(F)(F)F)C(=O)N1[C@H]2C[C@@H]([C@H]1C(=O)N[C@H](C#N)C[C@@H]1CCNC1=O)C1(CC1)C2 [Compound 50, (1R,4S,6S)—N-[(1S)-1-cyano-2-[(3S)-2-oxopyrrolidin-3-yl]ethyl]-5-[(2S)-3,3-dimethyl-2-(2,2,2-trifluoroacetamido)butanoyl]-5-azaspiro[bicyclo[2.2.1]heptane-2,1′-cyclopropane]-6-carboxamide] | – | < 100 nM | > 100000 nM | < 20 nM | < 1000 nM | ≥ 10000 nM | > 10000 nM | – | – |
| CC(C)(C)[C@H](NC(=O)C(F)(F)F)C(=O)N1CCC2(C[C@H]1C(=O)N[C@H](C#N)C[C@@H]1CCNC1=O)CC(F)(F)C2 [Compound 51, (S)—N—((S)-1-cyano-2-((S)-2-oxopyrrolidin-3-yl)ethyl)-7-((S)-3,3-dimethyl-2-(2,2,2-trifluoroacetamido)butanoyl)-2,2-difluoro-7-azaspiro[3.5]nonane-6-carboxamide] | – | 1000 to 10000 nM | > 100000 nM | 200 to 2000 nM | 1000 to 10000 nM | ≥ 10000 nM | > 10000 nM | – | – |
| O=C(NC1CC1)C(=O)[C@H](C[C@@H]1CCNC1=O)NC(=O)[C@@H]1CC2(CCN1C(=O)c1ncc(-c3ccccc3)s1)CC2 [Example 1, (S)—N—((S)-4-(cyclopropylamino)-3,4-dioxo-1-((S)-2-oxopyrrolidin-3-yl)butan-2-yl)-6-(5-phenylthiazole-2-carbonyl)-6-azaspiro[2.5]octane-5-carboxamide] | 200 to 2000 nM | 100 to 1000 nM | – | 20 to 200 nM | < 1000 nM | ≥ 10000 nM | – | 10000 to 100000 nM | – |
| Cn1c(C(=O)N2CCC3(CC3)C[C@H]2C(=O)N[C@@H](C[C@@H]2CCNC2=O)C(=O)CO)cc2ccccc21 [Example 2, (S)—N—((S)-4-hydroxy-3-oxo-1-((S)-2-oxopyrrolidin-3-yl)butan-2-yl)-6-(1-methyl-1H-indole-2-carbonyl)-6-azaspiro[2.5]octane-5-carboxamide] | – | 1000 to 10000 nM | – | 20 to 200 nM | 1000 to 10000 nM | ≥ 10000 nM | > 10000 nM | ≥ 100000 nM | – |
| O=C(NC1CC1)C(=O)[C@H](C[C@@H]1CCNC1=O)NC(=O)[C@@H]1CC2(CCN1C(=O)c1nc(-c3ccccc3)cs1)CC2 [Example 3] | 2000 to 20000 nM | 100 to 1000 nM | – | 20 to 200 nM | 1000 to 10000 nM | ≥ 10000 nM | – | 10000 to 100000 nM | – |
| Cn1c(C(=O)N2CCC3(CC3)C[C@H]2C(=O)N[C@@H](C[C@@H]2CCNC2=O)C(=O)C(=O)NC2CC2)nc2ccccc21 [Example 4] | 2000 to 20000 nM | 1000 to 10000 nM | – | 20 to 200 nM | 1000 to 10000 nM | ≥ 10000 nM | – | ≥ 100000 nM | – |
| Cn1c(C(=O)N2CCC3(CC3)C[C@H]2C(=O)N[C@H](C#N)C[C@@H]2CCNC2=O)cc2ccccc21 [Example 5, (S)—N—((S)-1-cyano-2-((S)-2-oxopyrrolidin-3-yl)ethyl)-6-(1-methyl-1H-indole-2-carbonyl)-6-azaspiro[2.5]octane-5-carboxamide] | – | 1000 to 10000 nM | – | 200 to 2000 nM | 1000 to 10000 nM | ≥ 10000 nM | > 10000 nM | ≥ 100000 nM | – |
